Earlier results, collected in patent publication US20250275939A1, “CO-CRYSTALS” (UNIVERSITY OF IOWA RESEARCH FOUNDATION, priority 2024, published 2025).
Where two headings read alike, the source gives them in different places. Peptide text beside a SMILES is read from it.

Experiments:
[1] = in vivo
[2] = in vivo; remark: listed apart in the source
[3] = humans, adults and children
[4] = humans, after a single oral dose

With `C1N2CN3CN1CN(C2)C3` [Methenamine] as the molecule, how does the “serum enzyme elevations / clinically apparent acute liver injury” value [1] read?
Its value is “has not been linked to serum enzyme elevations or to instances of clinically apparent acute liver injury”.

With `Cc1nc(C)c(C)nc1C` [TMP, tetramethyl pyrazine] as the molecule, how does the “penetration of the blood-brain barrier” value [2] read?
Its value is “can penetrate the blood-brain barrier”.

With `COC(=O)[C@H](Cc1ccccc1)NC(=O)[C@@H](N)CC(=O)O` [aspartame, Aspartame] (H-Asp-Phe-OMe) as the molecule, how does the acceptable daily intake ([3]; Europe) read?
The acceptable daily intake was 40 mg/kg bodyweight.

And the acceptable daily intake ([3]; United States)?
The acceptable daily intake was 50 mg/kg bodyweight.

With `O=c1c(O)c(-c2ccc(O)c(O)c2)oc2cc(O)cc(O)c12` [quercetin, Quercetin] as the molecule, how does the oral bioavailability [4] read?
Its oral bioavailability is about 2%.
